Our source for the EC50 values is patent US9505762B2, “Purine derivatives as CB2 receptor agonists” (Hoffmann-La Roche Inc., priority 2013, dated 2016).

The EC50 is the concentration at which the effect is half-maximal. A high value points to a need for much substance.

One experiment concerns the target human CB2 receptors (Homo sapiens (Human), UniProt P34972). Description: functional cAMP assay, CB2. Format: cell-based. The settings on record: CHO cells expressing human CB2. As to the method:
(§1) The growth medium was exchanged with Krebs Ringer Bicarbonate buffer with 1 mM IBMX and incubated at 30° C. for 30 min. Compounds were added to a final assay volume of 100 μl and incubated for 30 min at 30° C. Using the cAMP-Nano-TRF detection kit the assay (Roche Diagnostics) was stopped by the addition of 50 μl lysis reagent (Tris, NaCl, 1.5% Triton X100, 2.5% NP40, 10% NaN3) and 50 μl detection solutions (20 μM mAb Alexa700-cAMP 1:1, and 48 μM Ruthenium-2-AHA-cAMP) and shaken for 2 h at room temperature. The time-resolved energy transfer is measured by a TRF reader (Evotec Technologies GmbH), equipped with a ND:YAG laser as excitation source. The plate is measured twice with the excitation at 355 nm and at the emission with a delay of 100 ns and a gate of 100 ns, total exposure time 10 s at 730 (bandwidth 30 nm) or 645 nm (bandwidth 75 nm), respectively.
(§2) EC50 values were determined using Activity Base analysis (ID Business Solution, Limited).
A general note: cAMP levels reflect the balance of adenylyl cyclase and phosphodiesterase activity.

The next experiment addresses human CB1 receptors (Homo sapiens (Human), UniProt P21554). Description: functional cAMP assay, CB1. Format: cell-based. The settings on record: CHO cells expressing human CB1. The method, then: as §1, §2

human CB2 receptors, sequence (P34972 whole entry): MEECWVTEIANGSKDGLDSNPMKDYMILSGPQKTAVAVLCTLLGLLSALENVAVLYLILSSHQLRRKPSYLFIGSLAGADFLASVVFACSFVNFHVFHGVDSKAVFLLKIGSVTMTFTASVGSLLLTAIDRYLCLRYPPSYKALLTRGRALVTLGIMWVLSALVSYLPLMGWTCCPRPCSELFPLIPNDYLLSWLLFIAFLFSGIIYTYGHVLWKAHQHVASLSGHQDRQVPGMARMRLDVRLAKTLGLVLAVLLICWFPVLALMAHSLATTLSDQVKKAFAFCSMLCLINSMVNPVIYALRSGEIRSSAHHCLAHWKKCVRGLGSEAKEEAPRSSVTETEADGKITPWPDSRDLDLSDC
human CB1 receptors, sequence (P21554 whole entry): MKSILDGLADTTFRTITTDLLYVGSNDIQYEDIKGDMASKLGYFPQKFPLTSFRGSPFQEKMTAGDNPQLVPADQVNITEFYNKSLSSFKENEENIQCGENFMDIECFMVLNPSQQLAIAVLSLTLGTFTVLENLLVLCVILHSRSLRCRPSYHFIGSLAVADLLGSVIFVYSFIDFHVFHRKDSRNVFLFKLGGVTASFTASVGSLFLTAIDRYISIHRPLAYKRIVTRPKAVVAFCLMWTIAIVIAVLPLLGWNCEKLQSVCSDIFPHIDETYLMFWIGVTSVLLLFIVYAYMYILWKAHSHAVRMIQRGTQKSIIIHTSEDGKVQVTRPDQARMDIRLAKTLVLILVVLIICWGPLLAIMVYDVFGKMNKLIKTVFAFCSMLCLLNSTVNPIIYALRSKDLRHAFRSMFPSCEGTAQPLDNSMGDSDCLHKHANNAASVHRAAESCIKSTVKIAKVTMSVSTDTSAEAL

As to `CC(C)(C)c1nc(N2CCC(F)(F)C2)c2ncn(Cc3ccc(Cl)cc3)c2n1` [Example 1, 2-Tert-Butyl-9-[(4-Chlorophenyl)Methyl]-6-(3,3-Difluoropyrrolidin-1-Yl)Purine], the EC50 on human CB2 receptors was 0.0116 µM; at human CB1 receptors, more than 10 µM.
Consider `CC(C)(C)c1nc(N2CCC(F)(F)C2)c2ncn(Cc3ccccc3Cl)c2n1` [Example 2, 2-tert-butyl-9-[(2-chlorophenyl)methyl]-6-(3,3-difluoropyrrolidin-1-yl)purine], for which the EC50 on human CB2 receptors came out at 0.0006 µM. That is a sub-nanomolar value.
For `Cc1ccc(Cn2cnc3c(N4CCC(F)(F)C4)nc(C(C)(C)C)nc32)cc1` [Example 3, 2-tert-butyl-6-(3,3-difluoropyrrolidin-1-yl)-9-[(4-methylphenyl)methyl]purine], the concentration giving a half-maximal response (EC50) on human CB1 receptors was more than 10 µM.
With `CC(C)(C)c1nc(N2CCC(F)(F)C2)c2ncn(Cc3ccc(F)cc3Cl)c2n1` [Example 4, 2-tert-butyl-9-[(2-chloro-4-fluorophenyl)methyl]-6-(3,3-difluoropyrrolidin-1-yl)purine], the values for the EC50 on human CB2 receptors and on human CB1 receptors were 0.0031 µM and more than 10 µM, respectively.
Regarding `CC(C)(C)c1nc(N2CCC(F)(F)C2)c2ncn(Cc3ccccc3C(F)(F)F)c2n1` [Example 5, 2-tert-butyl-6-(3,3-difluoropyrrolidin-1-yl)-9-[[2-(trifluoromethyl)phenyl]methyl]purine], the midpoint of the response at human CB2 receptors, the EC50, lay at 0.0007 µM.
As to `CC(C)(C)c1nc(N2CCC(F)(F)C2)c2ncn(Cc3cccnc3Cl)c2n1` [Example 6, 2-tert-butyl-9-[(2-chloropyridin-3-yl)methyl]-6-(3,3-difluoropyrrolidin-1-yl)purine], at human CB2 receptors, the EC50 is 0.0005 µM. The EC50 values of the last two molecules are within 1.5-fold of each other.
Consider `Cc1noc(Cn2cnc3c(N4CCC(F)(F)C4)nc(C(C)(C)C)nc32)n1` [Example 7, 5-[[2-tert-butyl-6-(3,3-difluoropyrrolidin-1-yl)purin-9-yl]methyl]-3-methyl-1,2,4-oxadiazole], for which the EC50 on human CB2 receptors was 0.0347 µM; on human CB1 receptors it was more than 10 µM.
Take `CC(C)(C)c1nc(N2CCC(F)(F)C2)c2ncn(CC3CCCCC3)c2n1` [Example 8, 2-tert-butyl-9-(cyclohexylmethyl)-6-(3,3-difluoropyrrolidin-1-yl)purine]: the EC50 at human CB2 receptors is 0.0753 µM; on human CB1 receptors, more than 10 µM.
Regarding `CCn1cnc2c(N3CCC(F)(F)C3)nc(C(C)(C)C)nc21` [Example 9, 2-tert-butyl-6-(3,3-difluoropyrrolidin-1-yl)-9-ethylpurine], the EC50 on human CB2 receptors was 0.0488 µM; at human CB1 receptors, more than 10 µM.
Regarding `CCCn1cnc2c(N3CCC(F)(F)C3)nc(C(C)(C)C)nc21` [Example 10, 2-tert-butyl-6-(3,3-difluoropyrrolidin-1-yl)-9-propylpurine], the EC50 at human CB1 receptors was more than 10 µM.
As for `Cc1nnc(Cn2cnc3c(N4CCC(F)(F)C4)nc(C(C)(C)C)nc32)o1` [Example 11, 2-[[2-tert-butyl-6-(3,3-difluoropyrrolidin-1-yl)purin-9-yl]methyl]-5-methyl-1,3,4-oxadiazole], the figures for the EC50 at human CB2 receptors and at human CB1 receptors were 0.0617 µM and more than 10 µM, respectively.
In the case of `CC(C)(C)c1nc(N2CCC(F)(F)C2)c2ncn(C3CCOC3)c2n1` (centres unmarked) [Example 12, 2-tert-butyl-6-(3,3-difluoropyrrolidin-1-yl)-9-(oxolan-3-yl)purine], the results for the EC50 on human CB2 receptors and on human CB1 receptors were 0.0031 µM and more than 10 µM, respectively.
`CC(C)(C)c1nc(N2CCC(F)(F)C2)c2ncn(CCc3ccccc3)c2n1` [Example 13, 2-tert-butyl-6-(3,3-difluoropyrrolidin-1-yl)-9-(2-phenylethyl)purine]: it took 0.0054 µM to reach a half-maximal effect on human CB2 receptors (EC50).
`Cn1nnnc1Cn1cnc2c(N3CCC(F)(F)C3)nc(C(C)(C)C)nc21` [Example 14, 2-tert-butyl-6-(3,3-difluoropyrrolidin-1-yl)-9-[(1-methyltetrazol-5-yl)methyl]purine]: the figures for the EC50 at human CB2 receptors and at human CB1 receptors were 0.023 µM and more than 10 µM, respectively.
With `COCCn1cnc2c(N3CCC(F)(F)C3)nc(C(C)(C)C)nc21` [Example 15, 2-tert-butyl-6-(3,3-difluoropyrrolidin-1-yl)-9-(2-methoxyethyl)purine], on human CB1 receptors, the EC50 was more than 10 µM.
Consider `Cc1nonc1Cn1cnc2c(N3CCC(F)(F)C3)nc(C(C)(C)C)nc21` [Example 16, 3-[[2-tert-butyl-6-(3,3-difluoropyrrolidin-1-yl)purin-9-yl]methyl]-4-methyl-1,2,5-oxadiazole], for which the EC50 at human CB2 receptors is 0.006 µM; on human CB1 receptors, more than 10 µM.
`CC(C)(C)c1nc(N2CCC(F)(F)C2)c2ncn(CCC(F)(F)F)c2n1` [Example 19, 2-tert-butyl-6-(3,3-difluoropyrrolidin-1-yl)-9-(3,3,3-trifluoropropyl)purine] returned an EC50 on human CB1 receptors of more than 10 µM.
At human CB1 receptors, `CC(C)(C)c1nc(N2CCC(O)C2)c2ncn(Cc3ccc(Cl)cc3)c2n1` (centres unmarked) [Example 26, 1-[2-tert-butyl-9-[(4-chlorophenyl)methyl]purin-6-yl]pyrrolidin-3-ol] came in with an EC50 of more than 10 µM.
Regarding `CCCn1cnc2c(N3CCC(O)C3)nc(C(C)(C)C)nc21` (centres unmarked) [Example 36, 1-(2-tert-butyl-9-propylpurin-6-yl)pyrrolidin-3-ol], the concentration giving a half-maximal response (EC50) on human CB1 receptors is more than 10 µM.
Take `CC(C)(C)c1nc(N2CCC(F)(F)C2)c2ncn(Cc3c[nH]nc3C(F)(F)F)c2n1` [Example 41, 2-tert-butyl-6-(3,3-difluoropyrrolidin-1-yl)-9-[[3-(trifluoromethyl)-1H-pyrazol-4-yl]methyl]purine]: the EC50 at human CB2 receptors was 0.0092 µM.
`CC(=O)N[C@H]1CCN(c2nc(C(C)(C)C)nc3c2ncn3Cc2ccccc2Cl)C1` [Example 48, N—{(S)-1-[2-tert-Butyl-9-(2-chloro-benzyl)-9H-purin-6-yl]-pyrrolidin-3-yl}-acetamide]: the EC50 at human CB1 receptors was more than 10 µM.
The same measure, in the same setting: next, `CC(=O)N[C@H]1CCN(c2nc(C(C)(C)C)nc3c2ncn3Cc2nonc2C)C1` [Example 55, N—[(S)-1-[2-tert-butyl-9-[(4-methyl-1,2,5-oxadiazol-3-yl)methyl]purin-6-yl]pyrrolidin-3-yl]acetamide]: more than 10 µM.
Molecule `CC1(O)CCN(c2nc(C(C)(C)C)nc3c2ncn3Cc2ccc(Cl)cc2)C1` (centres unmarked) [Example 66, 1-[2-tert-butyl-9-[(4-chlorophenyl)methyl]purin-6-yl]-3-methylpyrrolidin-3-ol] displayed an EC50 on human CB1 receptors of more than 10 µM.
As for `Cc1nonc1Cn1cnc2c(N3CCC(C)(O)C3)nc(C(C)(C)C)nc21` (centres unmarked) [Example 70, 1-[2-tert-butyl-9-[(4-methyl-1,2,5-oxadiazol-3-yl)methyl]purin-6-yl]-3-methylpyrrolidin-3-ol], the EC50 on human CB1 receptors is more than 10 µM.
On the same count and under the same terms, next, `COCCn1cnc2c(N3CCC(C)(O)C3)nc(C(C)(C)C)nc21` (centres unmarked) [Example 71, 1-[2-tert-butyl-9-(2-methoxyethyl)purin-6-yl]-3-methylpyrrolidin-3-ol]: more than 10 µM.
In the case of `CC(C)(C)c1nc(N2CC(F)(F)C(F)(F)C2)c2ncn(Cc3ccccc3Cl)c2n1` [Example 72, 2-tert-butyl-9-[(2-chlorophenyl)methyl]-6-(3,3,4,4-tetrafluoropyrrolidin-1-yl)purine], the EC50 on human CB1 receptors is more than 10 µM.
As to `Cc1nonc1Cn1cnc2c(N3CC(F)(F)C(F)(F)C3)nc(C(C)(C)C)nc21` [Example 82, 3-[[2-tert-butyl-6-(3,3,4,4-tetrafluoropyrrolidin-1-yl)purin-9-yl]methyl]-4-methyl-1,2,5-oxadiazole], the half-maximal effective concentration (EC50) on human CB1 receptors is more than 10 µM.
Molecule `CC(C)(C)c1nc(N2CC[C@H](O)C2)c2ncn(Cc3ccc(Cl)cc3)c2n1` [Example 88, (3S)-1-[2-tert-butyl-9-[(4-chlorophenyl)methyl]purin-6-yl]pyrrolidin-3-ol] returned an EC50 on human CB1 receptors of more than 10 µM.
Same read-out and setting: next, `Cc1nnc(Cn2cnc3c(N4CCC(F)(F)C4)nc(NC(C)(C)C)nc32)o1` [Example 109, N-tert-butyl-6-(3,3-difluoropyrrolidin-1-yl)-9-[(5-methyl-1,3,4-oxadiazol-2-yl)methyl]purin-2-amine]: more than 10 µM; `CC(C)(C)Nc1nc(N2CC[C@H](O)C2)c2ncn(Cc3c[nH]nc3C(F)(F)F)c2n1` [Example 122, (3S)-1-[2-(tert-butylamino)-9-[[3-(trifluoromethyl)-1H-pyrazol-4-yl]methyl]purin-6-yl]pyrrolidin-3-ol]: more than 10 µM; `CC(C)(C)Nc1nc(N2CC3(COC3)C2)c2ncn(Cc3ccccc3C(F)(F)F)c2n1` [Example 137, N-tert-butyl-6-(2-oxa-6-azaspiro[3.3]heptan-6-yl)-9-[[2-(trifluoromethyl)phenyl]methyl]purin-2-amine]: more than 10 µM.
Turning to `Cc1nonc1Cn1cnc2c(N3CCN(C)CC3)nc(C(C)(C)C)nc21` [Example 144, 3-[[2-tert-butyl-6-(4-methylpiperazin-1-yl)purin-9-yl]methyl]-4-methyl-1,2,5-oxadiazole], the EC50 on human CB1 receptors was more than 10 µM.
In turn, `CC(C)(C)c1nc(N2CCC[C@@H]2CO)c2ncn(Cc3nnnn3C3CC3)c2n1` [Example 146, [(2R)-1-[2-tert-butyl-9-[(1-cyclopropyltetrazol-5-yl)methyl]purin-6-yl]pyrrolidin-2-yl]methanol] returned an EC50 on human CB1 receptors of more than 10 µM.
In the case of `CC(C)(C)c1nc(N2CC(F)(F)C2)c2ncn(Cc3ncccc3Cl)c2n1` [Example 160, 2-tert-butyl-9-[(3-chloropyridin-2-yl)methyl]-6-(3,3-difluoroazetidin-1-yl)purine], the EC50 at human CB1 receptors is more than 10 µM.
At human CB1 receptors, `CC(C)(C)c1nc(N2CC[C@H](O)C2)c2ncn(Cc3nnnn3C(C)(C)C)c2n1` [Example 166, (3S)-1-[2-tert-butyl-9-[(1-tert-butyltetrazol-5-yl)methyl]purin-6-yl]pyrrolidin-3-ol] had an EC50 of more than 10 µM.
